Each structure is given as a SMILES string.

One experiment has as its system Penicillopepsin (Penicillium janthinellum). The experiment can be described thus: Slow binding kinetics after pre-incubation of enzyme and inhibitor for 10 min before substrate addition;+ indicates weak inhibition of penicillopepsin.
With `COC(=O)C[C@H](O)[C@H](Cc1c[nH]cn1)NC(=O)[C@@H](NC(=O)[C@@H](NC(=O)CC(C)C)C(C)C)C(C)C`, the Slow binding result was “weak inhibition of porcine pepsin”.

The test system is the same in the next experiment. In words: Inhibitory activity against pencillopepsin.
For orientation: Ki means the dissociation constant of the complex between target and ligand, obtained from inhibition or displacement. A low value points to higher affinity. In turn, `CCOC(=O)C[C@H](O)[C@H](CC(C)C)NC(=O)[C@@H](NC(=O)[C@@H](NC(=O)CC(C)C)C(C)C)C(C)C` had a Ki of 72 nM.

Molecule `CCOC(=O)C[C@H](O)[C@H](CC(C)C)NC(=O)[C@H](NC(=O)[C@@H](NC(=O)CC(C)C)C(C)C)C(C)C` came in with a Ki above 18000 nM.

In turn, `CCOC(=O)C[C@H](O)[C@H](CCCN)NC(=O)[C@@H](NC(=O)[C@@H](NC(=O)CC(C)C)C(C)C)C(C)C` came in with a Ki of 1.1 nM.

`CCOC(=O)C[C@H](O)[C@H](Cc1ccccc1)NC(=O)[C@@H](NC(=O)[C@@H](NC(=O)CC(C)C)C(C)C)C(C)C` displayed a Ki of 15 nM.

`COC(=O)C[C@H](O)[C@H](Cc1c[nH]cn1)NC(=O)[C@@H](NC(=O)[C@@H](NC(=O)CC(C)C)C(C)C)C(C)C`: the affinity corresponds to a Ki of 4.5 nM.

The values are drawn from ChEMBL document CHEMBL1124693, “Synthesis of the novel pi-(benzyloxymethyl)-protected histidine analogue of statine. Inhibition of penicillopepsin by pepstatin-derived peptides containing different statine side-chain derivatives” (J Med Chem, 1989).
